The text below walks through data of BindingDB's records for patent US20240409538 (Impact Therapeutics (Shanghai), 2024).

As a reminder, the IC50 is the concentration that gives 50% inhibition.

For the test, the target named is Ubiquitin carboxyl-terminal hydrolase 1/WD repeat-containing protein 48 (Homo sapiens, UniProt O94782). The test can be described thus: Not found.
Sequence of Ubiquitin carboxyl-terminal hydrolase 1/WD repeat-containing protein 48 (O94782 whole entry): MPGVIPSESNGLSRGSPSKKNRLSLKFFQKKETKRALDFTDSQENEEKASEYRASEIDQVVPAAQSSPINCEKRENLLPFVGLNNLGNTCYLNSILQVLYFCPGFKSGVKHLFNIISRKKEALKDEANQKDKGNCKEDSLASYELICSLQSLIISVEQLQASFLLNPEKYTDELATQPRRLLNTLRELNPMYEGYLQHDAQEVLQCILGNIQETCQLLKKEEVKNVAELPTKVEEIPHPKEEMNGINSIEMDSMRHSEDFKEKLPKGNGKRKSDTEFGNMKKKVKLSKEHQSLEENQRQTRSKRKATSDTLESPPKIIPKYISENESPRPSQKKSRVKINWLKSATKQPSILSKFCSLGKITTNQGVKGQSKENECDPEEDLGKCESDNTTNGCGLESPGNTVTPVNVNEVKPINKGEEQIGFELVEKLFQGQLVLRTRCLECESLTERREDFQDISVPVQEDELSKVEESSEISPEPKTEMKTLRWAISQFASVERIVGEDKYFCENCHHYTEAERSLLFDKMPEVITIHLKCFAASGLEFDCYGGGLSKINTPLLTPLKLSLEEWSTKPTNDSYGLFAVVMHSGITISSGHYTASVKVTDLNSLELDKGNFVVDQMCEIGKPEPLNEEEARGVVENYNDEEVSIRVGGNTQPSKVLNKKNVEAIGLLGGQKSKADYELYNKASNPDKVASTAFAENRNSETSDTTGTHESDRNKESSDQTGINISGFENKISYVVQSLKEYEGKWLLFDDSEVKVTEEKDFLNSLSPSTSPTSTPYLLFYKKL
Sequence of Ubiquitin carboxyl-terminal hydrolase 1/WD repeat-containing protein 48 (Q8TAF3 whole entry, further chain): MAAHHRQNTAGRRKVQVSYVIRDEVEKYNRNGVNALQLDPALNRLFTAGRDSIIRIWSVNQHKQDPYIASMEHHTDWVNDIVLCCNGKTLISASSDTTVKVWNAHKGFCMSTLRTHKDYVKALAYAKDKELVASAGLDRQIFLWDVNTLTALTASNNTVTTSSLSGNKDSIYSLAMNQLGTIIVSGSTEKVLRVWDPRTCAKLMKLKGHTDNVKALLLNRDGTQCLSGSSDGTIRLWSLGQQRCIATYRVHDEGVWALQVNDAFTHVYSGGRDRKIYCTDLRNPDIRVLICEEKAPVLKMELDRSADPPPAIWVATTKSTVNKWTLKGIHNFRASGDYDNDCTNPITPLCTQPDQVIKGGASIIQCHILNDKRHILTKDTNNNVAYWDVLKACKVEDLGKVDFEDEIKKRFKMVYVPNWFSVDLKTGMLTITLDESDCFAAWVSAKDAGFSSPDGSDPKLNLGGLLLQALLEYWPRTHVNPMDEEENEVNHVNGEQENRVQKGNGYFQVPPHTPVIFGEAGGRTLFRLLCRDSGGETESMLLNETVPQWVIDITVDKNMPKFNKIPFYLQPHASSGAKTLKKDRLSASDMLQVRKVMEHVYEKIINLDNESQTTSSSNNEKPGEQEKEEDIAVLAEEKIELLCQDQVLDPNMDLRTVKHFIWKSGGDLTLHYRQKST

Molecule `COc1ncnc(OC)c1-c1nc2c(Cc3ccc(-c4nc(C(F)(F)F)cn4C)cc3)cccn2n1` [US20240409538, Example 27] displayed a half-maximal inhibitory concentration (IC50) of 77.5 nM.
